Assay results published in PMC3919815, “Anti-Tumor Effects of Novel 5-O-Acyl Plumbagins Based on the Inhibition of Mammalian DNA Replicative Polymerase Activity” (PLoS ONE, 2014).
Where two headings read alike, the source gives them in different places.

Assays:
Type in all cases: biochemical
[1] = molecular target: T1, Human pol μ (Homo sapiens, UniProt Q9NP87); experiment: DNA polymerase activity inhibition; details: 0.05 units enzyme; mean ± SD (n = 3)
T1 construct: His tag; made in house; host or cells: E. coli BL21
T1 sequence (Q9NP87 whole entry): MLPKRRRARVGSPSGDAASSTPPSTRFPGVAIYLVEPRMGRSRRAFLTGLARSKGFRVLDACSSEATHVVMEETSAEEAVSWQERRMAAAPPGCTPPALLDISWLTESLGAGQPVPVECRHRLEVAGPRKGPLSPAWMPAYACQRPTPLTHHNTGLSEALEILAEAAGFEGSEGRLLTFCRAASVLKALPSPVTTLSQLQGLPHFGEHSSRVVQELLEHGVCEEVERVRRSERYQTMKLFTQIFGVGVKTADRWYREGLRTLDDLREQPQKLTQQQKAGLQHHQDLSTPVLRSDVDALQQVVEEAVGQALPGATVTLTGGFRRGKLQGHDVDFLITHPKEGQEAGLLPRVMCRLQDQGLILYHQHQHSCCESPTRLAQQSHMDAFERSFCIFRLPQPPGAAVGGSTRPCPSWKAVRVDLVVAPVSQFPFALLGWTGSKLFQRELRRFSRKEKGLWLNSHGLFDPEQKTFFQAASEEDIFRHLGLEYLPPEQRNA
From the text: (§1) Pol α was purified from calf thymus by immunoaffinity column chromatography as described by Tamai et al.. Recombinant rat pol β was purified from Escherichia coli JMpβ5 as described by Date et al.. The human pol γ catalytic gene was cloned into pFastBac. Histidine-tagged enzyme was expressed using the BACTO-BAC HT Baculovirus Expression System according to the manufacturer's instructions (Life Technologies, Frederick, MD, USA) and purified using ProBound resin (Invitrogen Japan, Tokyo Japan). Human pols δ and ε were purified by nuclear fractionation of human peripheral blood cancer cells (Molt-4) using the second subunit of pol δ and ε-conjugated affinity column chromatography, respectively. A truncated form of human pol η (residues 1–511) tagged with His6 at its C-terminal was expressed in E. coli cells and purified as described by Kusumoto et al.. A recombinant mouse pol ι tagged with His6 at its C-terminal was expressed and purified by Ni–NTA column chromatography. A truncated form of pol κ (residues 1–560) with 6× His-tags attached at the C-terminus was overexpressed in E. coli and purified as described by Ohashi et al.. Recombinant human His-pol λ was overexpressed and purified according to a method described by Shimazaki et al.. Recombinant human His-pol μ was overexpressed in E. coli BL21 and purified using Glutathione Sepharose 4B (GE Healthcare Bio-Science Corp., Piscataway, NJ, USA) column chromatography according to the method for pol λ preparation by Shimazaki et al.. Pol α from a higher plant, cauliflower, was purified from the inflorescence structure according to the methods outlined by Sakaguchi et al.. Recombinant rice (Oryza sativa L. cv. Nipponbare) pol λ tagged with His6 at the C-terminus was expressed in E. coli and purified as described by Uchiyama et al.. Calf TdT, Taq pol, T4 pol, T7 RNA polymerase, and T4 polynucleotide kinase were purchased from Takara Bio Inc. (Kyoto, Japan). The Klenow fragment of pol I from E. coli was purchased from Worthington Biochemical Corp. (Freehold, NJ, USA). Bovine pancreas deoxyribonuclease I was obtained from Stratagene Cloning Systems (La Jolla, CA, USA).
(§2) The reaction mixtures for calf pol α, rat pol β, plant pol α, and prokaryotic pols have been described previously, [35]; those for pol γ as well as pols δ and ε were previously described by Umeda et al. and Ogawa et al., respectively. Those for pols η, ι, and κ were the same as for pol α, and those for pols λ and μ were the same as for pol β. For the pol reactions, poly(dA)/oligo(dT)18 (A/T, 2/1) and dTTP were used as the DNA template-primer substrate and nucleotide (dNTP; 2′-deoxynucleoside-5′-triphosphate) substrate, respectively. For the TdT reactions, oligo(dT)18 (3′-OH) and dTTP were used as the DNA primer substrate and nucleotide substrate, respectively.
(§3) The chemically synthesized 5-O-acyl plumbagins (2a–j) were dissolved in distilled dimethyl sulfoxide (DMSO) to various concentrations and sonicated for 30 s. Subsequently, 4 µL aliquots were mixed with 16 µL of each enzyme (0.05 units) in 50 mM Tris-HCl at pH 7.5, containing 1 mM dithiothreitol, 50% glycerol (by vol), and 0.1 mM ethylenediaminetetraacetic acid and held at 0°C for 10 min. These inhibitor-enzyme mixtures in 8 µL volumes were next added to 16 µL of enzyme standard reaction mixture and incubated at 37°C for 60 min, except for Taq pol, which was incubated at 74°C for 60 min. Activity without inhibitor was considered 100%, and the relative activity was determined for each inhibitor concentration. One unit of pol activity was defined as the amount of each enzyme that catalyzed the incorporation of 1 nmol dTTP into synthetic DNA template primers in 60 min, at 37°C, and under standard reaction conditions, [35].

[2] = molecular target: T2, Human pol λ (Homo sapiens, UniProt Q9UGP5); experiment: DNA polymerase activity inhibition; details: 0.05 units enzyme; mean ± SD (n = 3)
T2 construct: His tag; made in house
T2 sequence (Q9UGP5 1-575): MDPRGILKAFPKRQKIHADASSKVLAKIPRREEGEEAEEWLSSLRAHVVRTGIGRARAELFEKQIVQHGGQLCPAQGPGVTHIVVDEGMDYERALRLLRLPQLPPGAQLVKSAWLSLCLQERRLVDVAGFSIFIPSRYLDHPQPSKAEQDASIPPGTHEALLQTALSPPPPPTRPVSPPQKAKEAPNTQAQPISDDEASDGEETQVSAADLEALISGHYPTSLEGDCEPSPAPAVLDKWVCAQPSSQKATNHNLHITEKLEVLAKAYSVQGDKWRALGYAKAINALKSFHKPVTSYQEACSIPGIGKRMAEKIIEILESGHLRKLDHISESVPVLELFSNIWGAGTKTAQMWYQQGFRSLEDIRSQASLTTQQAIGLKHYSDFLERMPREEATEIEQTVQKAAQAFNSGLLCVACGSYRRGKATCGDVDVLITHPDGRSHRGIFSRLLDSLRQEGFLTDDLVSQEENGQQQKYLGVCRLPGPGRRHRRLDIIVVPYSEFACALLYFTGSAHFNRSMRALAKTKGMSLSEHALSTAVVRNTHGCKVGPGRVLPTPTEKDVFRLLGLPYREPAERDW
From the text: as §1, §2, §3

[3] = molecular target: Cauliflower pol α (Brassica oleracea var. botrytis, UniProt A0A0D3D890); experiment: DNA polymerase activity inhibition
Sequence of Cauliflower pol α (A0A0D3D890 entry or part of it): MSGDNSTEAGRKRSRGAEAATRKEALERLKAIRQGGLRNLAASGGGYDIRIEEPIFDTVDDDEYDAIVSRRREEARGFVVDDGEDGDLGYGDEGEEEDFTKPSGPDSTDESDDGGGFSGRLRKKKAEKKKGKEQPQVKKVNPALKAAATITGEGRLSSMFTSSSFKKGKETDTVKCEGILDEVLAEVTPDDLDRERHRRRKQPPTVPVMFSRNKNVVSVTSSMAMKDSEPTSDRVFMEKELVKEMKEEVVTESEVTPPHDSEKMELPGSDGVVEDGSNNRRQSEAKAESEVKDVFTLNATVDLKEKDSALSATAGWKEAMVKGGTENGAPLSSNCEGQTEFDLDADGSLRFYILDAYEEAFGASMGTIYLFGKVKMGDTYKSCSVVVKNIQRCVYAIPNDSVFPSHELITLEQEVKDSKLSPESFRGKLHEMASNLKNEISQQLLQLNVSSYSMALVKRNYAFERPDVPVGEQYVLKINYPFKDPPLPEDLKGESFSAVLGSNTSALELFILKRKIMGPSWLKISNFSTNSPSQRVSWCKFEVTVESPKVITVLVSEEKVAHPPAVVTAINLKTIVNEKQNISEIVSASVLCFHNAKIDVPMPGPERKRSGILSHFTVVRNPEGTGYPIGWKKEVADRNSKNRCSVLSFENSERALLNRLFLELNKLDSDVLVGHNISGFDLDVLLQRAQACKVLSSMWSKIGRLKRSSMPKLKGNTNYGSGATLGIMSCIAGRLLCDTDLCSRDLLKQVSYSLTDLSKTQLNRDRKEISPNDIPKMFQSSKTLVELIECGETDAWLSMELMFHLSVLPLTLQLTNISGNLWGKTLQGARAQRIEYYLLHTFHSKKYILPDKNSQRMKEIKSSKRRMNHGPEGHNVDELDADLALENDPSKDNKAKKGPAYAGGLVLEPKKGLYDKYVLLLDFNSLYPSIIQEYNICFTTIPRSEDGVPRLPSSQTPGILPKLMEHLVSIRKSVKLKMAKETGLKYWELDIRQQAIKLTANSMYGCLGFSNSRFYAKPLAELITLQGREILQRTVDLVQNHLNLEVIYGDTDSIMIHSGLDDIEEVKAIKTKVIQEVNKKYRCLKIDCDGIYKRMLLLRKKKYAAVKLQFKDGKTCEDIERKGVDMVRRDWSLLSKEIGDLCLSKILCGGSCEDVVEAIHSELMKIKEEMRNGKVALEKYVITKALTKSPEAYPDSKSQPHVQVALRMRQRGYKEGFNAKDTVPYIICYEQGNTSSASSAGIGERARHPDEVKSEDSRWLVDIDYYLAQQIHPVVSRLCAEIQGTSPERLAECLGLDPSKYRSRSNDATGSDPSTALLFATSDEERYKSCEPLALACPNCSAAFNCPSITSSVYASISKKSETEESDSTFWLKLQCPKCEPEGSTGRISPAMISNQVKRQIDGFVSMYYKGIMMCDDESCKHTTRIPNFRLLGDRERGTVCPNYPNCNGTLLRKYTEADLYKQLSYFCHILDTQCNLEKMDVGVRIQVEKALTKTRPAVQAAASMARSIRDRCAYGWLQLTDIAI
From the text: as §1, §2, §3

[4] = molecular target: T3, Calf pol α (Bos taurus, UniProt A0AAA9TD94); experiment: DNA polymerase activity inhibition; details: 0.05 units enzyme; mean ± SD (n = 3)
T3 construct: from tissue; host or cells: calf thymus
T3 sequence (A0AAA9TD94 1-1441): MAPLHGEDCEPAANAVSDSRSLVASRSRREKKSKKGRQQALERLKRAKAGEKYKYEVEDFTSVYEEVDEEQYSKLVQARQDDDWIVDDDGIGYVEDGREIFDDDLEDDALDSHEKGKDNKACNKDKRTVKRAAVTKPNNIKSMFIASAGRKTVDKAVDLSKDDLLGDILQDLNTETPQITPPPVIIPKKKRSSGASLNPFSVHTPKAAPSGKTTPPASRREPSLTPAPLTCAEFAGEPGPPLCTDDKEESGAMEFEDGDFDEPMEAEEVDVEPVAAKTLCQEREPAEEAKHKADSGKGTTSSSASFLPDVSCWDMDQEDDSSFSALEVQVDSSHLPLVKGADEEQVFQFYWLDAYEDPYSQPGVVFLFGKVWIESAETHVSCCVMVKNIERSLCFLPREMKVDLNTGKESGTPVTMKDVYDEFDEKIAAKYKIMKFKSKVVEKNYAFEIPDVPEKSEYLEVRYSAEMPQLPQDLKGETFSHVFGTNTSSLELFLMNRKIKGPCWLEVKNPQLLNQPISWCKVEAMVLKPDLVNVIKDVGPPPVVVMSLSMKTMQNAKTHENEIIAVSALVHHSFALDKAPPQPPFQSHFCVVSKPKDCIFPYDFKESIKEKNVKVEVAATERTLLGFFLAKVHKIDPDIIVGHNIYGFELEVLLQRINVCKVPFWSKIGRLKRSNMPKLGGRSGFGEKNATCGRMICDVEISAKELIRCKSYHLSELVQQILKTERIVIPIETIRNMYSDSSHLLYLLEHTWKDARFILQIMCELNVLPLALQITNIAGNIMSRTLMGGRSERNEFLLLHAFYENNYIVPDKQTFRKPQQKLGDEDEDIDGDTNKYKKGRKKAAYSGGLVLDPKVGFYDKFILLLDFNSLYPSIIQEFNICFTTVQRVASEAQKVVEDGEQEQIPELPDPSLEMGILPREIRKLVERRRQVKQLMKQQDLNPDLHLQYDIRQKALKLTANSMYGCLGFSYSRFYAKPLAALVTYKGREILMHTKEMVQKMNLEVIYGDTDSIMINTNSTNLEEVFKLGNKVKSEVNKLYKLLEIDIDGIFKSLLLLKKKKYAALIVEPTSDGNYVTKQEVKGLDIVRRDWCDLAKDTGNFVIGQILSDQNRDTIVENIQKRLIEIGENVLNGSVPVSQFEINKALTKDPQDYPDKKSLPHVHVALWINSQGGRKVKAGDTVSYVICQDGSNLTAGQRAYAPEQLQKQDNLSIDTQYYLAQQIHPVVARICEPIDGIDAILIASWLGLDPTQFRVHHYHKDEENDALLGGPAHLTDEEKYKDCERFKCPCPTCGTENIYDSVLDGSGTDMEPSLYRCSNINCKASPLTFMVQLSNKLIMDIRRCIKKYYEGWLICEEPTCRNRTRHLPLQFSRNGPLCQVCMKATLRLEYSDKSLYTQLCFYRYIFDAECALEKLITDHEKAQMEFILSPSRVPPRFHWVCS
From the text: as §1, §2, §3

[5] = molecular target: T4, E. coli pol I (Escherichia coli, UniProt P00582); experiment: DNA polymerase activity inhibition
T4 construct: The Klenow fragment of pol I from E. coli was purchased from Worthington Biochemical Corp; purchased Worthington Biochemical Corp. (Freehold, NJ, USA)
T4 sequence (P00582 324-928): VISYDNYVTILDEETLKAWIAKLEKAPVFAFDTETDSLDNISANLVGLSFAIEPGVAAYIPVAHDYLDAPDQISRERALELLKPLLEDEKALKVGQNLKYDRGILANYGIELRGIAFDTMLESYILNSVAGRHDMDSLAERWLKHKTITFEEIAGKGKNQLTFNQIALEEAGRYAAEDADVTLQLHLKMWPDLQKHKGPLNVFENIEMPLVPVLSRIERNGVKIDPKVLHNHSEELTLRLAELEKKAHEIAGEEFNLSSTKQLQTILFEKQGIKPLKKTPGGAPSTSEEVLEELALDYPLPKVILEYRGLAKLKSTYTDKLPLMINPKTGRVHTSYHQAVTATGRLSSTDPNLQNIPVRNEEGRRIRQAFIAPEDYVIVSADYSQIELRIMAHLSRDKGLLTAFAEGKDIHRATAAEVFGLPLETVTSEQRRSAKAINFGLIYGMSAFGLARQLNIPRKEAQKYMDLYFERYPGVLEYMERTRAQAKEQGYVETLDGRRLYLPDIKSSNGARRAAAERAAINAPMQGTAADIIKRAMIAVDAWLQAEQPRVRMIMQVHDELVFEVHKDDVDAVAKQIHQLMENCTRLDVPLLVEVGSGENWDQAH
From the text: as §1, §2, §3

[6] = molecular target: T5, Mouse pol ι (Mus musculus, UniProt Q6R3M4); experiment: DNA polymerase activity inhibition; details: 0.05 units enzyme; mean ± SD (n = 3)
T5 construct: His6 (C); made in house
T5 sequence (Q6R3M4 whole entry): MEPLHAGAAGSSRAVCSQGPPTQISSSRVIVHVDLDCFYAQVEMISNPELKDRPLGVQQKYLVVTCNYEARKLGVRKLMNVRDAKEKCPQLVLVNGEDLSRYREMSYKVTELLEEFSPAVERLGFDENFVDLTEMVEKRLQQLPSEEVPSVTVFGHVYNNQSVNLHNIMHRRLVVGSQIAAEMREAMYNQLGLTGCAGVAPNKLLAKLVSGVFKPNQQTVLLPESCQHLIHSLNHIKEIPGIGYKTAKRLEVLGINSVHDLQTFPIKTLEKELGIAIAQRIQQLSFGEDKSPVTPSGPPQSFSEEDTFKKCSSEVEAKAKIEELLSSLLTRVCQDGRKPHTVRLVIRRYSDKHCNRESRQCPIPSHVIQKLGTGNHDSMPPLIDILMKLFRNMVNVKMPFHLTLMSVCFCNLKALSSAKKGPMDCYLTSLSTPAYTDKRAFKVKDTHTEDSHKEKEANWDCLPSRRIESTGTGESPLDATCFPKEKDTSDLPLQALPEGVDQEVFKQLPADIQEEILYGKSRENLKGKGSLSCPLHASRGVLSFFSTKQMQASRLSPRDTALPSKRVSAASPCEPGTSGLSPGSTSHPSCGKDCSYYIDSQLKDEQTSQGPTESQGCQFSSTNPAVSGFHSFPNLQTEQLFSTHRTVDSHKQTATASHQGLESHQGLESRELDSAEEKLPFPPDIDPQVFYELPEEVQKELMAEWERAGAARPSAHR
From the text: as §1, §2, §3

[7] = molecular target: T6, Human pol ε (Homo sapiens, UniProt Q07864); experiment: DNA polymerase activity inhibition; details: 0.05 units enzyme; mean ± SD (n = 3)
T6 construct: purified by nuclear fractionation of human peripheral blood cancer cells (Molt-4); endogenous in cells; host or cells: Molt-4
From the text: as §1, §2, §3

[8] = tested on: mammalian pols; experiment: DNA polymerase activity inhibition, summary over the panel
From the text: as §1, §2, §3

## CCCCCCCC/C=C\CCCCCCCC(=O)Oc1cccc2c1C(=O)C=C(C)C2=O [2f, 5-O-oleoyl-2-methyl-1,4-naphthoquinone]
[1]
  IC50: 9.5 ± 0.48 µM
[2]
  IC50: 9.2 ± 0.43 µM
[3]
  effect on enzyme activity (in words): had no effect
[4]
  IC50: 4.8 ± 0.38 µM
[5]
  effect on enzyme activity (in words): had no effect
[5]; 0.05 units enzyme
  IC50: > 100 µM
[6]
  IC50: 8.2 ± 0.43 µM
[7]
  IC50: 4.9 ± 0.4 µM
[8]
  inhibitory effect on A and B families of pols, fold stronger than on X and Y families: 1.5- to 2 fold
[8]; B family of pols, read-out: 50% inhibition dose
  IC50: 4.8 to 5.3 µM
[8]; X family of pols, read-out: 50% inhibition dose
  IC50: 9.2 to 10.6 µM
[8]; Y family of pols, read-out: 50% inhibition dose
  IC50: 7.6 to 8.2 µM
[8]; all of the mammalian pols (11 species), read-out: IC50 values
  IC50: 4.5 to 10.6 µM
[8]; data not shown
  influence of excess poly(rC) and BSA on pol inhibition: little or no influence
[8]; pols α, δ and ε, versus aphidicolin IC50 of ref 45
  pol inhibitory activity, fold more potent than aphidicolin: > 2 fold
